Test results reported in patent publication US20210122763A1, “OGA INHIBITOR COMPOUNDS” (Janssen Pharmaceutica NV, priority 2018, published 2021).

Columns and labels:
[1] = target: T1, OGA (Homo sapiens, UniProt O60502); assay: OGA cellular assay (ICC detection of O-GlcNAcylated proteins in HEK293 cells inducible for P301L mutant human Tau); format: cell-based; conditions: 6 hours incubation; for Emax: HEK293, HEK293 cells inducible for P301L mutant human Tau, maximum = Thiamet G 200 uM; for EC50: HEK293 cells inducible for P301L mutant human Tau, read-out: Cellular hOGA, pEC50 (converted)
T1 construct: HEK293 cells inducible for P301L mutant human Tau (isoform 2N4R) were established at Janssen; endogenous in cells; host or cells: HEK293 cells inducible for P301L mutant human Tau (2N4R)
T1 sequence (O60502 1-916): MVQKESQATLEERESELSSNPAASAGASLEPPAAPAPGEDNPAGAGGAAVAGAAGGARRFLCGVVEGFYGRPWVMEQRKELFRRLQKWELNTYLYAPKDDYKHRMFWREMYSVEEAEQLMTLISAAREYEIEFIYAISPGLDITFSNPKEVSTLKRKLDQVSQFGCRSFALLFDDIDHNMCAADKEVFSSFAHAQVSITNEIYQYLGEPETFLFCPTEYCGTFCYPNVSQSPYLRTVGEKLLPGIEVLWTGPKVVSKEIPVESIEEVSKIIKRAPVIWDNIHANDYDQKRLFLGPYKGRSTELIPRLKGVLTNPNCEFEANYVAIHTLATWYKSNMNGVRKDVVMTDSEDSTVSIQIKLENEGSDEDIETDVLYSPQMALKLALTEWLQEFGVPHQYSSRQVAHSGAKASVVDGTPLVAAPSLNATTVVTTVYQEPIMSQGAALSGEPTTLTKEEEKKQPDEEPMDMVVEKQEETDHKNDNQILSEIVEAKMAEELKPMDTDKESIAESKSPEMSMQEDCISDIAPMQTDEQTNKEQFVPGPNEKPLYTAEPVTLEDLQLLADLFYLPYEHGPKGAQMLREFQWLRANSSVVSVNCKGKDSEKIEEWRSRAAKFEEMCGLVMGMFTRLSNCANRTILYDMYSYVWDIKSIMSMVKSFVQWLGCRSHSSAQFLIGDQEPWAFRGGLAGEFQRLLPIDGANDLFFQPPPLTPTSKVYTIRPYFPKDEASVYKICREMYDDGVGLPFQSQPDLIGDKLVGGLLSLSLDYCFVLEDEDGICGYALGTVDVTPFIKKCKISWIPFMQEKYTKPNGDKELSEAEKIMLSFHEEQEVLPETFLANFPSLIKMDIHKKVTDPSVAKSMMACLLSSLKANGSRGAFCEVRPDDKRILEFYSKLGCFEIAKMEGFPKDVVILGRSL
Procedure: HEK293 cells inducible for P301L mutant human Tau (isoform 2N4R) were established at Janssen. Thiamet-G was used for both plate validation (high control) and as reference compound (reference EC50 assay validation). OGA inhibition is evaluated through the immunocytochemical (ICC) detection of O-GlcNAcylated proteins by the use of a monoclonal antibody (CTD110.6; Cell Signaling, #9875) detecting 0-GlcNAcylated residues as previously described (Dorfmueller et al. 2010 Chemistry & biology, 17:1250). Inhibition of OGA will result in an increase of 0-GlcNAcylated protein levels resulting in an increased signal in the experiment. Cell nuclei are stained with Hoechst to give a cell culture quality control and a rough estimate of immediate compounds toxicity, if any. ICC pictures are imaged with a Perkin Elmer Opera Phenix plate microscope and quantified with the provided software Perkin Elmer Harmony 4.1.
Cells were propagated in DMEM high Glucose (Sigma, #D5796) following standard procedures. 2 days before the cell assay cells are split, counted and seeded in Poly-D-Lysine (PDL) coated 96-wells (Greiner, #655946) plate at a cell density of 12,000 cells per cm^2 (4,000 cells per well) in 100p of Assay Medium (Low Glucose medium is used to reduce basal levels of GlcNAcylation) (Park et al. 2014 The Journal of biological chemistry 289:13519). At the day of compound test medium from assay plates was removed and replenished with 90 μl of fresh Assay Medium. 10 μl of compounds at a 10 fold final concentration were added to the wells. Plates were centrifuged shortly before incubation in the cell incubator for 6 hours. DMSO concentration was set to 0.2%. Medium is discarded by applying vacuum. For staining of cells medium was removed and cells washed once with 100 μl D-PBS (Sigma, #D8537). From next step onwards unless other stated assay volume was always 50p and incubation was performed without agitation and at room temperature. Cells were fixed in 50 μl of a 4% paraformaldehyde (PFA, Alpha aesar, #043368) PBS solution for 15 minutes at room temperature. […] Before analysis samples were washed 2 times manually for 5 minutes in ICC base buffer.
Imaging is performed using Perkin Elmer Phenix Opera using a water 20× objective and recording 9 fields per well. Intensity readout at 488 nm is used as a measure of O-GlcNAcylation level of total proteins in wells. To assess potential toxicity of compounds nuclei were counted using the Hoechst staining. IC50-values are calculated using parametric non-linear regression model fitting. As a maximum inhibition Thiamet G at a 200 uM concentration is present on each plate. In addition, a concentration response of Thiamet G is calculated on each plate.

[2] = target: T2, recombinant human Meningioma Expressed Antigen 5 (MGEA5), also referred to as O-GlcNAcase (OGA) (Homo sapiens, UniProt O60502); assay: OGA biochemical assay (inhibition of FM-GlcNAc hydrolysis, fluorescence); conditions: for Emax: read-out: Enzymatic Emax (%); for IC50: read-out: Enzymatic hOGA, pIC50 (converted)
T2 construct: Full length OGA enzyme was purchased at OriGene (cat #TP322411); purchased OriGene TP322411
T2 sequence (O60502 1-916): T1 sequence (O60502 1-916)
Description: The assay is based on the inhibition of the hydrolysis of fluorescein mono-B-D-N-Acetyl-Glucosamine (FM-GcNAc) (Mariappa et al. 2015, Biochem J470:255) by the recombinant human Meningioma Expressed Antigen 5 (MGEA5), also referred to as O-GlcNAcase (OGA). The hydrolysis FM-GlcNAc (Marker Gene technologies, cat #M1485) results in the formation of B-D-N-glucosamineacetate and fluorescein. The fluorescence of the latter can be measured at excitation wavelength 485 nm and emission wavelength 538 nm. An increase in enzyme activity results in anincrease in fluorescence signal. Full length OGA enzyme was purchased at OriGene (cat #TP322411). The enzyme was stored in 25 mM Tris.HCl, pH 7.3, 100 mM glycine, 10% glycerol at −20° C. Thiamet G and GlcNAcStatin were tested as reference compounds (Yuzwa et al. 2008 Nature Chemical Biology 4:483; Yuzwa et al. 2012 Nature Chemical Biology 8:393). The assay was performed in 200 mM Citrate/phosphate buffer supplemented with 0.005% Tween-20. 35.6 g Na2HPO4 2H2O (Sigma, #C0759) were dissolved in 1 L water to obtain a 200 mM solution. 19.2 g citric acid (Merck, #1.06580) was dissolved in 1 L water to obtain a 100 mM solution. pH of the sodiumphosphate solution was adjusted with the citric acid solution to 7.2. The buffer to stop the reaction consists of a 500 mM Carbonate buffer, pH 11.0. 734 mg FM-GlcNAc were dissolved in 5.48 mL DMSO to obtain a 250 mM solution and was stored at −20° C. OGA was used at a 2 nM concentration and FM-GcNAc at a 100 uM final concentration. Dilutions were prepared in assay buffer.
50 nl of a compound dissolved in DMSO was dispensed on Black Proxiplate™ 384 Plus Assay plates (Perkin Elmer, #6008269) and 3 μl fl-OGA enzyme mix added subsequently. Plates were pre-incubated for 60 min at room temperature and then 2 μl FM-GlcNAc substrate mix added.
Plates were briefly centrifuged for 1 min at 1000 rpm and incubate at room temperature for 6 h. To stop the reaction 5 μl STOP buffer were added and plates centrifuge again 1 min at 1000 rpm. Fluorescence was quantified in the Thermo Scientific Fluoroskan Ascent or the PerkinElmer EnVision with excitation wavelength 485 nm and emission wavelength 538 nm.
For analysis a best-fit curve is fitted by a minimum sum of squares method. From this an IC50 value and Hill coefficient was obtained. High control (no inhibitor) and low control (saturating concentrations of standard inhibitor) were used to define the minimum and maximum values.

Cc1cc(OC2CCN(C(C)c3cnc4c(c3)OCCO4)CC2)cc(C(F)(F)F)n1 (stereo not drawn) [Compound 19]
Emax [1]: 17%
EC50 [1]: > 1000 nM
Emax [2]: 92%
IC50 [2]: 1000 nM

Cc1cc(OC2CCN([C@@H](C)c3nc4c(cc3F)CCO4)CC2)cc(C)n1 (single isomer, unassigned) [Compound 145]
Emax [1]: 8%
EC50 [1]: > 1000 nM
Emax [2]: 86%
IC50 [2]: 1580 nM

CC(c1ccc2c(n1)OCCO2)N1CCC(Oc2ccncc2C#N)CC1 (stereo not drawn) [Compound 104]
Emax [1]: 12%
EC50 [1]: > 1000 nM
Emax [2]: 95%
IC50 [2]: 631 nM

COc1cc(C#N)cnc1OC1CCN(C(C)c2ccc3c(n2)OCCO3)CC1 (stereo not drawn) [Compound 102]
Emax [1]: 10%
EC50 [1]: > 1000 nM
Emax [2]: 95%
IC50 [2]: 501 nM

Cc1cc(C#N)cnc1OC1CCN(C(C)c2ccc3c(n2)OCCO3)CC1 (stereo not drawn) [Compound 97]
Emax [1]: 20%
EC50 [1]: > 1000 nM
Emax [2]: 94%
IC50 [2]: 398 nM

CC(c1ccc2c(n1)OCCO2)N1CCC(C)(Oc2ccc(F)cc2)CC1 (stereo not drawn) [Compound 131]
Emax [1]: -4%
EC50 [1]: > 1000 nM
Emax [2]: 70%
IC50 [2]: 3980 nM

Cc1cc(COC2CCN(C(C)c3nc4c(cc3F)OCCO4)CC2)cc(C)n1 (stereo not drawn) [Compound 159]
Emax [1]: 75%
EC50 [1]: 63.1 nM
Emax [2]: 94%
IC50 [2]: 12.6 nM

CC(c1nc2c(cc1F)OCCO2)N1CCC(Oc2ccnc(C#N)c2)CC1 (stereo not drawn) [Compound 155]
Emax [1]: 67%
EC50 [1]: 79.4 nM
Emax [2]: 94%
IC50 [2]: 15.8 nM

Cc1cc(OC2CCN(C(C)c3ccc4c(n3)OCCO4)CC2)cc(OC(C)C)n1 (stereo not drawn) [Compound 124]
Emax [1]: 64%
EC50 [1]: 100 nM
Emax [2]: 98%
IC50 [2]: 31.6 nM

Cc1cncc(OC2CCN(C(C)c3nc4c(cc3F)OCCO4)CC2)n1 (stereo not drawn) [Compound 109]
Emax [1]: 77%
EC50 [1]: 200 nM
Emax [2]: 99%
IC50 [2]: 12.6 nM

Cc1ncc(OC2CCN(C(C)c3nc4c(cc3F)OCCO4)CC2)nc1C (stereo not drawn) [Compound 110]
Emax [1]: 79%
EC50 [1]: 100 nM
Emax [2]: 101%
IC50 [2]: 7.94 nM

Cc1cc(OC2CCN(C(C)c3ccc4c(n3)OCCO4)CC2)c(F)c(C)n1 (stereo not drawn) [Compound 121]
Emax [1]: 59%
EC50 [1]: 398 nM
Emax [2]: 96%
IC50 [2]: 100 nM

Cc1cc(OC2CCN(C(C)c3ccc4c(n3)OCCO4)CC2)nc(C)n1 (single isomer, unassigned) [Compound 10]
Emax [1]: 73%
EC50 [1]: 631 nM
Emax [2]: 100%
IC50 [2]: 50.1 nM

CC(c1ccc2c(n1)OCCO2)N1CCC(Oc2ncc(C#N)cc2F)CC1 (stereo not drawn) [Compound 105]
Emax [1]: 16%
EC50 [1]: > 1000 nM
Emax [2]: 97%
IC50 [2]: 398 nM

Cc1cc(OC2CCN(C(C)c3nc4c(cc3F)CCO4)CC2)cc(C)n1 (stereo not drawn) [Compound 6]
Emax [1]: 87%
EC50 [1]: 17.4 nM
Emax [2]: 101%
IC50 [2]: 3.98 nM

COc1cc(OC2CCN(C(C)c3ccc4c(n3)OCCO4)CC2)cc(C)n1 (stereo not drawn) [Compound 14]
Emax [1]: 82%
EC50 [1]: 126 nM
Emax [2]: 100%
IC50 [2]: 20 nM

Cc1cc(COC2CCN(C(C)c3nc4c(cc3F)OCCO4)CC2)cc(C(F)(F)F)n1 (stereo not drawn) [Compound 169]
Emax [1]: 87%
EC50 [1]: 51.3 nM
Emax [2]: 96%
IC50 [2]: 12.6 nM

C[C@H](c1nc2c(cc1F)OCCO2)N1CCC(Oc2ccc(C#N)nn2)CC1 (single isomer, unassigned) [Compound 85]
Emax [1]: -3%
EC50 [1]: > 1000 nM
Emax [2]: -11%
IC50 [2]: > 10000 nM

Cc1cc(OC2CCN(C(C)c3ccc4c(n3)OCCO4)CC2)nc(C)n1 (single isomer, unassigned) [Compound 11]
Enzymatic Emax (%) [2]: 84%
IC50 [2]: 2510 nM

Cc1cc(OC2CCN(C(C)c3ccc4c(n3)OCCO4)CC2)cc(C)n1 (stereo not drawn) [Compound 1]
Emax [2]: 101%
IC50 [2]: 63.1 nM

Cc1cc(OC2CCN(C(C)c3ccc4c(n3)OCCO4)CC2)nc(C)n1 (stereo not drawn) [Compound 9]
Emax [2]: 102%
IC50 [2]: 100 nM
